Results: patent publication US5376679A, “Bicyclic or tricyclic biocidal compounds” (Shell Internationale Research Maatschappij B.V., priority 1988, dated 1994)

Key:
Plasmopara viticola [1] = test: Direct protectant activity against vine downy mildew (Pvp); assay type: in vivo; set-up: Pvp: direct protectant activity against vine downy mildew: scale not given here; conditions: foliar spray, 1 kg/ha; activity grade 1 or 2, not defined
From the text: (a) Direct Protectant Activity Against Vine Downy Mildew (Plasmopara viticola; Pvp)
The test is a direct protectant one, using a foliar spray. The lower surfaces of leaves of whole vine plants (cv Cabernet Sauvignon) are sprayed with a solution of active material in 1:1 v/v water/acetone containing 0.04% w "Triton X-155" (trade mark) (octylphenol polyoxyethylene surfactant), at a dosage of 1 kilogram of active material per hectare using a track sprayer which delivers 620 liters/ha, and after a subsequent 24 hours under normal glasshouse conditions the lower surfaces of the leaves are inoculated by spraying with an aqueous solution containing 10^4 zoosporangia/ml. The inoculated plants are kept for 24 hours in a high humidity compartment, 5 days under normal glasshouse conditions and then returned for a further 24 hours to high humidity. Assessment is based on the percentage of leaf area covered by sporulation compared with that on control leaves.

Podosphaera leucotricha = test: Direct antisporulant activity against apple powdery mildew (Pl); assay type: in vivo; conditions: foliar spray, 1 kg/ha; activity grade 1 or 2, not defined
From the text: (h) Activity Against Apple Powdery Mildew (Podosphaera leucotricha; Pl) The test is a direct anti-sporulant one using a foliar spray. The upper surfaces of leaves of whole seedlings are inoculated by spraying with an aqueous suspension containing 10^5 conidia/ml 2 days prior to treatment with the test compound. The inoculated plants are immediately dried and kept at glasshouse ambient temperatures and humidity prior to treatment. […] After drying the plants are returned to a compartment at ambient temperature and humidity for up to 9 days, followed by assessment. Assessment is based on the percentage of the leaf area covered by sporulation compared with that on leaves of control plants.

Plasmopara viticola [2] = test: Translaminar protectant test, vine downy mildew (Pvt); assay type: in vivo; conditions: secondary screening
From the text: The fungicidal activity of certain of the compounds was investigated further, in secondary screening.

[3] = test system: Pseudocercosporella herpotrichoides; test: In vitro activity against wheat eyespot (Ph); assay type: cell-based; set-up: Ph: activity against wheat eyespot: scale not given here; conditions: for Ph: activity against wheat eyespot: in vitro, 100 ppm in agar, 11 days, activity grade 1 or 2, not defined
Description: (c) Activity Against Wheat Eyespot (Pseudocercosporella herpotrichoides; Ph)
The test is an in vitro one. Samples are prepared wherein 0.7 mls solution containing 2 mg active material dissolved in acetone is evenly dispersed in 20 ml molten half-strength potato dextrose agar (formed by dissolving 2 g potato extract, 10 g dextrose and 7.5 g agar in 1 liter of water and sterilising for 15 minutes and 121° C.) and the resulting 20 ml portions are allowed to set in 9 cm petri dishes. The concentration of active material in the resulting samples is 100 ppm. Upon setting, two plugs of 5 mm diameter taken from the advancing edge of a stock plate of a 3 to 4 week old culture of P.herpotrichoides on full strength potato dextrose agar, incubated at 20°-22° C. in darkness, are placed, equally spaced on the surface of each sample, mycelial side uppermost. The samples are incubated for 11 days at 20°-22° C. in darkness before assessment. Diametric growth is measured with the width of the plug subtracted and results compared with growth on a sample wherein 0.7 ml acetone containing no active material is dispersed in 20 ml half-strength potato agar.

Alternaria Solani = test: Direct protectant activity against tomato early blight (As); assay type: in vivo; set-up: As: activity against tomato early blight: scale not given here; conditions: foliar spray as under (a), 8 days; activity grade 1 or 2, not defined; further: dose 1000 g/ha
Description: (g) Activity Against Tomato Early Blight (Alternaria Solani; As). The test is a direct protectant one using a foliar spray. The upper surfaces of leaves of young tomato plants are sprayed with a solution of active material as described in (a) above. After 24 hours under normal glasshouse conditions, the upper surfaces of the leaves are inoculated by spraying with an aqueous suspension containing 10^4 spores/ml. The inoculated plants are kept for 72 hours in a high humidity compartment and are then removed to lower humidity (50-70% relative humidity). Assessment is made 8 days after inoculation.

[4] = test system: Erysiphe graminis f.sp. hordei; test: Direct antisporulant activity against barley powdery mildew (Eg); assay type: in vivo; set-up: scale not given here; conditions: foliar spray, 1 kg/ha; activity grade 1 or 2, not defined
From the text: (f) Activity Against Barley Powdery Mildew (Erysiphe graminis f.sp. hordei; Eg) The test is a direct antisporulant one, using a foliar spray. Leaves of barley seedlings, cultivar Golden Promise, are inoculated by dusting with mildew conidia one day prior to treatment with the test compound. The inoculated plants are kept overnight at glasshouse ambient temperature and humidity prior to treatment. […] After drying, plants are returned to a compartment at ambient temperature and humidity for up to 7 days, followed by assessment. Assessment is based on the percentage of leaf area covered by sporulation compared with that on leaves of control plants.

Pyricularia oryzae = assay type: in vivo; conditions: foliar spray, 1 kg/ha; activity grade 1 or 2, not defined
Leptosphaeria nodorum = test: Direct antisporulant activity against wheat leafspot (Ln); assay type: in vivo; set-up: scale not given here; conditions: foliar spray, 1 kg/ha; activity grade 1 or 2, not defined
Description: (e) Activity Against Wheat Leafspot (Leptosphaeria nodorum; Ln) The test is a direct antisporulant one, using a foliar spray. Leaves of wheat plants ([…]), at the single leaf stage, are inoculated by spraying with an aqueous suspension containing 8×10^5 spores/mi. The inoculated plants are kept for 24 hours in a high humidity compartment prior to treatment. […] After drying, the plants are kept for 5 days under normal glasshouse conditions, followed by assessment. Assessment is based on the percentage of leaf area covered by sporulation compared with that on leaves of control plants.

bacteria = conditions: prior art; cited from earlier work
fungi = conditions: prior art; cited from earlier work
Plasmopara viticola [5] = test: Antisporulant activity against vine downy mildew (Pva); assay type: in vivo; conditions: foliar spray, 1 kg/ha; activity grade 1 or 2, not defined
Description: (j) Antisporulant Activity Against Vine Downy Mildew (Plasmopara viticola; Pva)
The test is a direct antisporulant one using a foliar spray. The lower surfaces of leaves of whole vine plants (cv Cabernet Sauvignon) are inoculated by spraying with an aqueous suspension containing 10^4 zoosporangia/ml 2 days prior to treatment with the test compound. The inoculated plants are kept for 24 hours in a high humidity compartment, and then 24 hours at glasshouse ambient temperature and humidity. When the plants are dry, infected leaves are sprayed on their lower surfaces with a solution of active material in 1:1 water/acetone containing 0.04% w/w "Triton X-155" (trade mark) (an octylphenol polyethoxylate surfactant). The spraying is carried out with a moving track sprayer with delivers 620 liter/ha, and the concentration of active material is calculated to give an application rate of 1 kg/ha. After spraying, the plants are returned to normal glasshouse conditions for 96 hours and are then transferred to the high humidity compartment for 24 hours to induce sporulation, prior to assessment. Assessment is visual and is based on the percentage of the leaf area covered by sporulation compared with that on control leaves.

Fusarium culmorum = test: Activity against seedling wheat blight, soil drench (Fs); assay type: in vivo; set-up: scale not given here; conditions: 10 kg/ha, 21 days, activity grade 1 or 2, not defined
Description: (d) Activity Against Seedling Wheat Blight (Fusarium culmorum; Fs)
The test is an anti-sporulant one using a soil drench. Surface sterilised wheat seeds (var Waggoner) are inoculated by soaking in an aqueous suspension containing 7×10^5 spores/ml (60 mg seed per 80 ml suspension) at 22° C. for 6 hours. The seeds are then sown in pots (5 per pot) in sand at a depth of 1 cm. 1 day after inoculation and planting the active material is applied at a rate of 10 kg/ha by pouring on a soil drench (concentration 0.36 g/l active material in 12% v/v acetone/water) evenly over the sand. The pots are then transferred to a glasshouse, kept at 25° C. and watered sparingly. 21 days after inoculation the resulting seedlings are removed from the pots and their roots are gently washed. Visual assessment is made based on lesion development on stem base and upper roots in comparison with control seedlings.

Botrytis cinerea = test: Direct protectant activity against vine grey mould (Bcp); assay type: in vivo; conditions: foliar spray, 1 kg/ha; activity grade 1 or 2, not defined
From the text: (b) Direct Protectant Activity Against Vine Grey Mould (Botrytis cinerea; Bcp) The test is a direct protectant one using a foliar spray and is effected as described under (a), with the difference that the leaves are inoculated by spraying with an aqueous solution containing 10^5 conidia/ml.

Row | SMILES | Pvp: direct protectant activity against vine downy mildew (Plasmopara viticola [1]) | Other: Pl, activity against apple powdery mildew (Podosphaera leucotricha) | Ph: activity against wheat eyespot [3] | Eg: activity against barley powdery mildew [4] | antibacterial activity (bacteria) | antifungal activity (fungi) | also measured
1 | CCC1Cc2c(C)ccc(N=NC(=O)OC)c2O1 (stereo not shown) [Example 37] | 1 | 1 | 1 | – | – | – | activity against Pvt (Plasmopara viticola [2]): high activity; As: activity against tomato early blight (Alternaria Solani): 1
2 | COCC1Cc2c(Cl)c(C)cc(N=NC(=O)OC)c2O1 (stereo not shown) [Example 36] | 1 | 2 | 2 | 2 | – | – | –
3 | COC(=O)N=[N+]([O-])c1ccc(C)c2c1OC(C)CC2 (stereo not shown) [Example 46] | 2 | – | 2 | 2 | – | – | Other: Po, activity against rice leaf blast (Pyricularia oryzae): 2; Ln: activity against wheat leafspot (Leptosphaeria nodorum): 2; As: activity against tomato early blight (Alternaria Solani): 2
4 | COC(=O)c1ccc([N+]([O-])=NC#N)cc1 [calvatic acid methyl ester] | – | – | – | – | antibacterial and antifungal activity | antibacterial and antifungal activity | –
5 | COC(=O)N=Nc1cc(C)cc2c1OC(C)C2 (stereo not shown) [Example 33] | 1 | – | – | 1 | – | – | Other: Pva, antisporulant activity against vine downy mildew (Plasmopara viticola [5]): 1
6 | C=CCOC(=O)N=Nc1ccc(C)c2c1OC(C)CC2 (stereo not shown) [Example 40] | – | 2 | – | – | – | – | Ln: activity against wheat leafspot (Leptosphaeria nodorum): 1
7 | C[S+](C)[O-].N#CN=[N+]([O-])c1ccc(C(=O)O)cc1 [4-carboxyphenylazoxycyanide-dimethylsulphoxide] | – | – | – | – | Antibacterial and antifungal properties | Antibacterial and antifungal properties | –
8 | N#CN=[N+]([O-])c1ccccc1C(=O)O [2-(cyano-N,N,O-azoxy)benzoic acid] | – | – | – | – | low activity against bacteria | no relevant activity against the tested fungi | –
9 | COC(=O)N=Nc1cccc2c1OC(C)(C)C2 [Example 31] | – | 1 | 1 | 1 | – | – | Fs: activity against seedling wheat blight (Fusarium culmorum): 1
10 | COC(=O)N=Nc1cc(Cl)c(C)c2c1OC(C)C2 (stereo not shown) [Example 35] | 1 | – | 1 | – | – | – | Other: Pva, antisporulant activity against vine downy mildew (Plasmopara viticola [5]): 1
11 | COC(=O)N=[N+]([O-])c1cccc2c1OC(C)(C)C2 [Example 43] | – | 1 | 2 | 2 | – | – | Bcp: direct protectant activity against vine grey mould (Botrytis cinerea): 1; activity against Ph ([3]; secondary screening): high activity
12 | N#CN=[N+]([O-])c1ccc(C(=O)O)cc1 [calvatic acid, 4 -(cyano-N,N,O-azoxy) benzoic acid] | – | – | – | – | antibacterial and antifungal activity | antibacterial and antifungal activity | –
